Results taken from US20190350931A1, “COMBINATION THERAPY” (GlaxoSmithKline Intellectual Property Development Limited, priority 2016, published 2019).

Experiments:
[1] = test system: MDM4 splicing, p53 and p21 in MCL lines; test: MDM4 splicing (RT-PCR) and p53/p21 western in MCL lines; type: cell-based; details: for p53 and p21 expression: Z138 cells, 200 nM Compound C, 5 μM Nutlin-3
Protocol: To understand whether p53 activation is associated with MDM4 isoform switching, MDM4 alternative splicing was analyzed. […] The role of the p53 pathway in the biology of the response of p53 wild-type MCL cells to PRMT5 inhibition is being evaluated.

[2] = test system: Type I and Type II PRMTs and lysine methyltransferases (KMTs); test: Methyltransferase selectivity panel (19 enzymes); type: biochemical; details: for selectivity for PRMT5/MEP50 over the other methyltransferases: PRMT5 tool compounds
Source text: FIG. 6: Phylogenetic tree highlighting the methyltransferases tested in the selectivity panel. […] PRMT9 is shown for relationship purposes only within the family tree and was not evaluated in the panel. Figure adapted from Richon V M. et al.
PRMT9/FBXO11, which is the other Type II PRMT and the only PRMT to lack the THW loop, was not included due to the lack of a functional enzyme assay.

[3] = test system: panel of cancer cell lines; type: cell-based
Source text: DLBCL-diffuse large B-cell lymphoma, GBM-glioblastoma, MCL-mantle cell lymphoma, MM-multiple myeloma
The cell lines were selected to represent tumor types where PRMT5 activity has been reported to regulate key pathways and/or cell growth and survival (such as lymphoma and MCL, glioma, breast and lung cancer lines).

[4] = test system: MCL cell lines; test: 6-day growth/death assay in a panel of MCL lines; type: cell-based
Source text: FIG. 18: Activity of PRMT5 inhibitor and ibrutinib as single agents and in combination in MCL cell lines. […] C.
• The strongest mechanistic link currently described between PRMT5 and cancer is in MCL. PRMT5 is frequently overexpressed in MCL and is highly expressed in the nuclear compartment where it increases levels of histone methylation and silences a subset of tumor suppressor genes. Importantly, cyclin D1, the oncogene that is translocated in the vast majority of MCL patients, associates with PRMT5 and through a cdk4-dependent mechanism increases PRMT5 activity. PRMT5 mediates the suppression of key genes that negatively regulate DNA replication allowing for cyclin D1-dependent neoplastic growth. PRMT5 knockdown inhibits cyclin D1-dependent cell transformation causing death of tumor cells.

[5] = test system: GBM cell lines; test: 2D 6-day growth/death CTG assay in GBM cell lines; type: cell-based; details: with the exception of SF539
[6] = test system: SDMA, MDM4 splicing, p53/p21 in Z138 cells; test: Dose-response of MDM4 splicing, SDMA and p53/p21 in Z138 cells; type: cell-based
[7] = test system: Z-138 MCL xenograft; test: 21-day efficacy study in Z-138 MCL xenograft model; type: in vivo
Protocol: B. Quantified SDMA western data from tumors harvested at the end of the efficacy study (3 hours post last dose).

[8] = test system: breast and MCL cell lines; test: Longer-term (10-12 day) growth/death assay in breast and MCL cell lines; type: cell-based; details: for response upon prolonged exposure: SKBR3, MDA-MB-468 and MCF-7 cells, 7-10 days
[9] = test system: breast cancer lines; test: Propidium iodide FACS cell cycle analysis of breast cancer lines; type: cell-based
[10] = test system: MDA-MB-468 xenograft; test: MDA-MB-468 triple negative breast cancer xenograft model; type: in vivo
Protocol: Next, the efficacy of PRMT5 inhibition was evaluated in in vivo models of breast cancer.

[11] = test system: GBM cell lines; test: 2D 14-day growth/death CTG assay in GBM cell lines; type: cell-based; details: only SF539 underwent apoptosis
[12] = biological target: PRMT5/MEP50 (Homo sapiens, UniProt O14744); test: PRMT5/MEP50 radioactive assay, 3H transfer from SAM to H4 peptide / protein substrate; type: biochemical; details: close analogs of Compound C
[13] = test system: SDMA, MDM4 splicing, p53 in GBM and lymphoma cell lines; test: SDMA, MDM4 splicing and p53 in GBM and lymphoma cell lines; type: cell-based; details: 1 μM
Protocol: Next, effects on cellular methylation and the p53 pathway were evaluated in GBM cells treated with a PRMT5 inhibitor by measuring SDMA, p53 and p21 protein levels and MDM4 splicing (FIG. 27). […] Alternative MDM4 splicing was detected in all cell lines but SF539 which are p53 mutant and have low basal expression of the long MDM4 isoform (FIG. 27, panel A). p53 levels increased in all cell lines, while the induction of p21 protein was observed only in cell lines that have wild-type p53 (Z138 (MCL), U87-MG and A172 (GBM)). […] The role of p53 in the response of GBM cell lines to PRMT5 inhibition will be further tested in future studies. Additionally, the effects of PRMT5 inhibition on cell cycle and neural differentiation in GBM models are being explored.

[14] = test system: lymphoma cell lines (Z138, Granta-519, DOHH2, RL); test: RNA-sequencing of lymphoma cell lines; type: cell-based
Protocol: FIG. 12: Gene expression changes in lymphoma cell lines treated with a PRMT5 inhibitor. A. Quantification of differentially expressed (DE) genes in lymphoma cell lines after Compound B (0.1 and 0.5 μM) treatment (days 2 and 4). B. Overlap of DE genes across lymphoma lines.
A. Mechanisms of regulation of cellular splicing (adapted from Bezzi M. et al.). B. Analysis of intron expression in lymphoma lines treated with 0.1 or 0.5 μM Compound B.
A. Quantification of isoform switches in 4 lymphoma cell lines treated with Compound B (0.1 and 0.5 μM) for 2 and 4 days. B. Overlap of isoform switches in 4 lymphoma lines. C. List of genes that undergo alternative splicing in all 4 lymphoma lines (overlap of 4 cell lines).
PRMT5 methylates histones and proteins involved in RNA processing and therefore PRMT5 inhibition is expected to have a profound effect on cellular mRNA homeostasis. To further decipher cellular mechanisms that are regulated by PRMT5 and contribute to the cellular response to PRMT5 inhibitors, global gene expression changes were evaluated in lymphoma models sensitive to PRMT5 inhibition. […]
First, gene expression changes were evaluated in lymphoma lines treated with increasing concentrations of PRMT5 tool molecule for 2 and 4 days (FIG. 12). […] The relevance of these genes in the mechanism of cellular response to PRMT5 inhibition is being evaluated. […]

[15] = Z-138 (MCL) cells, all time points (days 3-10)
[16] = ZR-75-1 cells, all time points (days 3-12)

PRMT5/MEP50, sequence (O14744 whole entry): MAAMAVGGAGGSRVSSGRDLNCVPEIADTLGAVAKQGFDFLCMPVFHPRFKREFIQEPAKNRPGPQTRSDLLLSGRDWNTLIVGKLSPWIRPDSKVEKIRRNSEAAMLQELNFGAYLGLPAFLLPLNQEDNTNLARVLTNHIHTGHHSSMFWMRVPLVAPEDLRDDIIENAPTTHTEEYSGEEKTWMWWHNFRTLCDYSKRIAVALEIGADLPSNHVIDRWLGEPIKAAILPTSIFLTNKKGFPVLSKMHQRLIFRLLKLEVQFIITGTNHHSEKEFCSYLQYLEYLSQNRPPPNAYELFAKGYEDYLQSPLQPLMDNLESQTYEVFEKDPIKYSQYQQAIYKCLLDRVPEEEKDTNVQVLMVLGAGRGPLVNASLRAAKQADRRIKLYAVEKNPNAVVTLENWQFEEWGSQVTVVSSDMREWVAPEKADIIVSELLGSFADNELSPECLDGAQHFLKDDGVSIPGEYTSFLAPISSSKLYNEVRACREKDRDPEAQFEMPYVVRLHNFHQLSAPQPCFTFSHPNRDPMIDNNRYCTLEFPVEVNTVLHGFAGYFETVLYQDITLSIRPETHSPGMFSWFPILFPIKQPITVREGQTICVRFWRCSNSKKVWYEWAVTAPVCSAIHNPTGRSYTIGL
PRMT5/MEP50, sequence (Q9BQA1 whole entry partner): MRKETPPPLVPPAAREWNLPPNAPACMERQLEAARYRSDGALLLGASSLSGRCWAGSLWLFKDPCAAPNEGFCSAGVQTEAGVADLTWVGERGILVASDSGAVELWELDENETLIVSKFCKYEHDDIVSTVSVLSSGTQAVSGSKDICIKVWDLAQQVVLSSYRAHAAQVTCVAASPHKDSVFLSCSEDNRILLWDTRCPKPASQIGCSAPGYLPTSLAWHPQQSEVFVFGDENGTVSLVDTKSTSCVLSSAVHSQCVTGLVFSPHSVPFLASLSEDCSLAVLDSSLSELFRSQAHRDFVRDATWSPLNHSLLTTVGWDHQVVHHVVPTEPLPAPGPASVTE

SMILES: COc1ccc(C2=N[C@@H](c3ccc(Cl)cc3)[C@@H](c3ccc(Cl)cc3)N2C(=O)N2CCNC(=O)C2)c(OC(C)C)c1 [Nutlin-3, reference compound]
- p53 and p21 expression [1]: increased p53 and p21 expression to similar levels

SMILES: CC(=O)N1CCC(Nc2cc(C(=O)NC[C@H](O)CN3CCc4ccccc4C3)ncn2)CC1 [Compound C]
- potency for any other tested enzyme ([2]; FIG. 6 legend): > 10^−5 M
- growth response of breast cancer cell lines ([3]; 6-day growth/death assay): complete growth inhibition
- gIC50 ([3]; most sensitive lymphoma lines (MCL and DLBCL)): single digit
- sensitivity (gIC50) of Z-138, Maver-1 and JVM-2 [4]: low
- sensitivity of Mino, Jeko-1 [4]: only moderately sensitive
- nature of the response [5]: largely cytostatic
- MDM4 isoform switching ([1]; Z138 and JVM-2 cells (both p53 wild-type)): induced MDM4 isoform switching
- p53 and p21 expression [1]: increased p53 and p21 expression to similar levels
- MDM4 RNA splicing and SDMA/p53/p21 levels [6]: induces dose-dependent changes
- concentration above which SDMA levels were undetectable by Western blot [6]: above 8 nM
- concentration above which changes in MDM4 splicing and p53/p21 protein expression were apparent [6]: above 8 nM
- body weight loss ([7]; all groups in all efficacy studies presented): no body weight loss
- TGI ([7]; summary for the xenograft models of mantle cell lymphoma): ~100%
- response upon prolonged exposure [8]: cytotoxic response
- response [8, 15]: profound overall net cell death
- response [8, 16]: cytostatic response
- cell death (increase in <2N) ([9]; 3 out of 4 breast cancer lines, after 7-10 days of treatment): induction of cell death
- cell cycle distribution ([9]; MCF-7 cells (p53 wild-type), day 2): accumulation of cells in G1 phase (2N)
- cell cycle distribution ([9]; MDA-MB-468 and SKBR-3, day 7 or day 10): decrease in G1 (2N) phase
- cell cycle distribution ([9]; ZR-75-1 cells (p53 wild-type)): minor effects on cell cycle distribution
- tumor growth inhibition (TGI) ([10]; 100 mg/kg BID): 83%
- efficacy ([10]; 100 mg/kg QD): not efficacious
- nature of the cytostatic/cytotoxic response upon longer exposure [11]: did not change

SMILES: CC(=O)N1CCC(Nc2cc(C(=O)NC[C@H](O)CN3CCc4ccccc4C3)ccn2)CC1 [Compound F]
- inhibitory potency compared with Compound C [12]: similar
- selectivity for PRMT5/MEP50 over the other methyltransferases [2]: Selectivity for PRMT5/MEP50 over the other methyltransferases was also observed

SMILES: O=C(NC[C@H](O)CN1CCc2ccccc2C1)c1cc(NC2COC2)ncn1 [Compound E]
- inhibitory potency compared with Compound C [12]: similar
- selectivity for PRMT5/MEP50 over the other methyltransferases [2]: Selectivity for PRMT5/MEP50 over the other methyltransferases was also observed

SMILES: O=C(NC[C@H](O)CN1CCc2ccccc2C1)c1ccnc(NC2CCC2)c1 [Compound B]
- inhibitory potency compared with Compound C [12]: similar
- selectivity for PRMT5/MEP50 over the other methyltransferases [2]: Selectivity for PRMT5/MEP50 over the other methyltransferases was also observed
- response upon prolonged exposure [8]: cytotoxic response
- response [8, 15]: profound overall net cell death
- response [8, 16]: cytostatic response
- MDM4 splicing [13]: induces alternative splicing of MDM4
- SDMA levels [13]: decreases SDMA levels
- p53 [13]: activates p53
- isoform switching ([14]; 0.1 and 0.5 μM, 2 and 4 days): induces isoform switching for a subset of genes
- intron splicing ([14]; 0.1 or 0.5 μM): attenuates the splicing of a subset of introns
